Our source for the Emax and EC50 values is patent US11572399B2, “Long-acting GIP peptide analogues” (University of Copenhagen, priority 2017, dated 2023).

The target in the test is T1, human GIP receptor (Homo sapiens, UniProt P48546).
T1 construct: host or cells: COS-7, transient transfection (calcium phosphate), cDNA in pCMV-Script
T1 sequence (P48546 22-466): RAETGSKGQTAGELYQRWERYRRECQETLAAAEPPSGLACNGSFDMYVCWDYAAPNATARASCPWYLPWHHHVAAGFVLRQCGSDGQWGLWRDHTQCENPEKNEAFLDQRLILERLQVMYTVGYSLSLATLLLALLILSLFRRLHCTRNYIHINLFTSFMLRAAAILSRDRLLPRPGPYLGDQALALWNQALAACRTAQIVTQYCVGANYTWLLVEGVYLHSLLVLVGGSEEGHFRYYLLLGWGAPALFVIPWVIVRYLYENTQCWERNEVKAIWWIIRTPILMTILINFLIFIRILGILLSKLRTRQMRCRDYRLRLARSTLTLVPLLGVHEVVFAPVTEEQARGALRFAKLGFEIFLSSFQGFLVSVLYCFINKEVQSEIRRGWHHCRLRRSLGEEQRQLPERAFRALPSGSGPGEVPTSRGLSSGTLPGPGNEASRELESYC
Put plainly: cAMP accumulation assay, agonism (ligand alone). The following applies: COS-7 cells, Table 1; for Emax: COS-7, intrinsic cAMP activity; for EC50: read-out: cAMP agonism nM (EC50). It is filed as cell-based. The method, then: COS-7 cells were cultured at 10% CO2 and 37° C. in Dulbecco's modified Eagle's medium 1885 supplemented with 10% fetal bovine serum, 2 mM glutamine, 180 units/ml penicillin, and 45 µg/ml streptomycin. Transient transfection of the COS-7 cells for cAMP accumulation and competition binding was performed using the calcium phosphate precipitation method with the addition of chloroquine^46-47.
Transient transfected COS-7 cells expressing the human GIP receptor were seeded in white 96-well plates with a density of 3.5*10^4/well. The day after, the cells were washed twice with Hepes buffered saline (HBS) buffer and incubated with HBS and 1 mM 3-isobutyl-1-methylxanthine (IBMX) for 30 min at 37° C. To test for agonistic properties, ligands were added and incubated for 30 min at 37° C. In order to test for antagonistic properties, the cells were preincubated with the antagonists for 10 min prior to the addition of the agonist and subsequent incubated for 20 additional min. The HitHunter™ cAMP XS assay (DiscoveRx) was carried out according to the manufacturer's instructions.
IC50, EC50, and Ki values were determined by nonlinear regression. These were carried out with the GraphPad Prism 6.0 software (GraphPad, San Diego, Calif., USA) and Microsoft Excel™. Ki values were based on the formula for one class of binding sites in homologous competition binding studies and the Cheng Prussoffs formula, respectively (DeBlasi et al., 1989). To determine the HSA binding potential, the fold change in affinity (as determined by IC50) was calculated as IC50 (plus HSA)/IC50 (minus HSA).

Each structure is given as a SMILES string. Peptide text beside a SMILES is read from it. * marks the point of attachment. C16 diacid = O=C(O)CCCCCCCCCCCCCCC(=O)*

For `CC[C@H](C)[C@H](NC(=O)[C@H](CO)NC(=O)[C@H](Cc1ccc(O)cc1)NC(=O)[C@H](CC(=O)O)NC(=O)[C@H](CO)NC(=O)[C@@H](NC(=O)[C@H](Cc1ccccc1)NC(=O)[C@@H](NC(=O)CNC(=O)[C@@H](N)CCC(=O)O)[C@@H](C)O)[C@@H](C)CC)C(=O)N[C@@H](C)C(=O)N[C@@H](CCSC)C(=O)N[C@@H](CC(=O)O)C(=O)N[C@@H](CCCCN)C(=O)N[C@H](C(=O)N[C@@H](Cc1c[nH]cn1)C(=O)N[C@@H](CCCCNC(=O)CCCCCCCCCCCCCCC(=O)O)C(=O)N[C@@H](CCC(N)=O)C(=O)N[C@@H](CC(=O)O)C(=O)N[C@@H](Cc1ccccc1)C(=O)N[C@H](C(=O)N[C@@H](CC(N)=O)C(=O)N[C@@H](Cc1c[nH]c2ccccc12)C(=O)N[C@@H](CC(C)C)C(=O)N[C@@H](CC(C)C)C(=O)N[C@@H](C)C(=O)N[C@@H](CCC(N)=O)C(=O)N[C@@H](CCCCN)C(N)=O)C(C)C)[C@@H](C)CC` [AT308, [hGIP(3-30)NH2[Q19K]-C16diacid/19]] (H-EGTFISDYSIAMDKIHK(C16 diacid)QDFVNWLLAQK-NH2; N-terminus assumed), the Emax was 7.9%. Consider `CC[C@H](C)[C@H](NC(=O)[C@H](CO)NC(=O)[C@H](Cc1ccc(O)cc1)NC(=O)[C@H](CC(=O)O)NC(=O)[C@H](CO)NC(=O)[C@@H](NC(=O)[C@H](Cc1ccccc1)NC(=O)[C@@H](NC(=O)CNC(=O)[C@@H](N)CCC(=O)O)[C@@H](C)O)[C@@H](C)CC)C(=O)N[C@@H](C)C(=O)N[C@@H](CCSC)C(=O)N[C@@H](CC(=O)O)C(=O)N[C@@H](CCCCN)C(=O)N[C@H](C(=O)N[C@@H](Cc1c[nH]cn1)C(=O)N[C@@H](CCC(N)=O)C(=O)N[C@@H](CCC(N)=O)C(=O)N[C@@H](CC(=O)O)C(=O)N[C@@H](Cc1ccccc1)C(=O)N[C@H](C(=O)N[C@@H](CC(N)=O)C(=O)N[C@@H](Cc1c[nH]c2ccccc12)C(=O)N[C@@H](CCCCNC(=O)CCCCCCCCCCCCCCC(=O)O)C(=O)N[C@@H](CC(C)C)C(=O)N[C@@H](C)C(=O)N[C@@H](CCC(N)=O)C(=O)N[C@@H](CCCCN)C(N)=O)C(C)C)[C@@H](C)CC` [AT315, [hGIP(3-30)NH2[L26K]-C16diacid/26]] (H-EGTFISDYSIAMDKIHQQDFVNWK(C16 diacid)LAQK-NH2; N-terminus assumed), for which the Emax was found to be 5.9% and the EC50 came out at 183 nM. For `CC[C@H](C)[C@H](NC(=O)[C@H](CO)NC(=O)[C@H](Cc1ccc(O)cc1)NC(=O)[C@H](CC(=O)O)NC(=O)[C@H](CO)NC(=O)[C@@H](NC(=O)[C@H](Cc1ccccc1)NC(=O)[C@@H](NC(=O)CNC(=O)[C@@H](N)CCC(=O)O)[C@@H](C)O)[C@@H](C)CC)C(=O)N[C@@H](C)C(=O)N[C@@H](CCSC)C(=O)N[C@@H](CC(=O)O)C(=O)N[C@@H](CCCCN)C(=O)N[C@H](C(=O)N[C@@H](Cc1c[nH]cn1)C(=O)N[C@@H](CCC(N)=O)C(=O)N[C@@H](CCC(N)=O)C(=O)N[C@@H](CC(=O)O)C(=O)N[C@@H](Cc1ccccc1)C(=O)N[C@H](C(=O)N[C@@H](CC(N)=O)C(=O)N[C@@H](Cc1c[nH]c2ccccc12)C(=O)N[C@@H](CC(C)C)C(=O)N[C@@H](CC(C)C)C(=O)N[C@@H](CCCCNC(=O)CCCCCCCCCCCCCCC(=O)O)C(=O)N[C@@H](CCC(N)=O)C(=O)N[C@@H](CCCCN)C(N)=O)C(C)C)[C@@H](C)CC` [AT317, [hGIP(3-30)NH2[A28K]-C16diacid/28]] (H-EGTFISDYSIAMDKIHQQDFVNWLLK(C16 diacid)QK-NH2; N-terminus assumed) the same measures were 21.8% and 62 nM.

As for `CC[C@H](C)[C@H](NC(=O)[C@H](CO)NC(=O)[C@H](CCCCNC(=O)CCCCCCCCCCCCCCC(=O)O)NC(=O)[C@H](CC(=O)O)NC(=O)[C@H](CO)NC(=O)[C@@H](NC(=O)[C@H](Cc1ccccc1)NC(=O)[C@@H](NC(=O)CNC(=O)[C@@H](N)CCC(=O)O)[C@@H](C)O)[C@@H](C)CC)C(=O)N[C@@H](C)C(=O)N[C@@H](CCSC)C(=O)N[C@@H](CC(=O)O)C(=O)N[C@@H](CCCCN)C(=O)N[C@H](C(=O)N[C@@H](Cc1c[nH]cn1)C(=O)N[C@@H](CCC(N)=O)C(=O)N[C@@H](CCC(N)=O)C(=O)N[C@@H](CC(=O)O)C(=O)N[C@@H](Cc1ccccc1)C(=O)N[C@H](C(=O)N[C@@H](CC(N)=O)C(=O)N[C@@H](Cc1c[nH]c2ccccc12)C(=O)N[C@@H](CC(C)C)C(=O)N[C@@H](CC(C)C)C(=O)N[C@@H](C)C(=O)N[C@@H](CCC(N)=O)C(=O)N[C@@H](CCCCN)C(N)=O)C(C)C)[C@@H](C)CC` [AT301, [hGIP(3-30)NH2[Y10K]-C16diacid/10]] (H-EGTFISDK(C16 diacid)SIAMDKIHQQDFVNWLLAQK-NH2; N-terminus assumed), the Emax stood at 8.5% and the EC50 worked out at 12 nM. `CC[C@H](C)[C@H](NC(=O)[C@H](CO)NC(=O)[C@H](Cc1ccc(O)cc1)NC(=O)[C@H](CC(=O)O)NC(=O)[C@H](CO)NC(=O)[C@@H](NC(=O)[C@H](Cc1ccccc1)NC(=O)[C@@H](N)[C@@H](C)O)[C@@H](C)CC)C(=O)N[C@@H](C)C(=O)N[C@@H](CCSC)C(=O)N[C@@H](CC(=O)O)C(=O)N[C@@H](CCCCN)C(=O)N[C@H](C(=O)N[C@@H](Cc1c[nH]cn1)C(=O)N[C@@H](CCC(N)=O)C(=O)N[C@@H](CCC(N)=O)C(=O)N[C@@H](CC(=O)O)C(=O)N[C@@H](Cc1ccccc1)C(=O)N[C@H](C(=O)N[C@@H](CC(N)=O)C(=O)N[C@@H](Cc1c[nH]c2ccccc12)C(=O)N[C@@H](CC(C)C)C(=O)N[C@@H](CC(C)C)C(=O)N[C@@H](C)C(=O)N[C@@H](CCC(N)=O)C(=O)N[C@@H](CCCCNC(=O)CCCCCCCCCCCCCCC(=O)O)C(N)=O)C(C)C)[C@@H](C)CC` [AT372, [hGIP(5-30)NH2[Q30K]-C16diacid/30]] came in with an Emax of 6%. Take `CC[C@H](C)[C@H](NC(=O)[C@H](CCCCN)NC(=O)[C@H](CC(=O)O)NC(=O)[C@H](CCSC)NC(=O)[C@H](C)NC(=O)[C@H](CCCCNC(=O)CCCCCCCCCCCCCCC(=O)O)NC(=O)[C@H](CO)NC(=O)[C@H](Cc1ccc(O)cc1)NC(=O)[C@H](CC(=O)O)NC(=O)[C@H](CO)NC(=O)[C@@H](NC(=O)[C@H](Cc1ccccc1)NC(=O)[C@@H](NC(=O)CNC(=O)[C@@H](N)CCC(=O)O)[C@@H](C)O)[C@@H](C)CC)C(=O)N[C@@H](Cc1c[nH]cn1)C(=O)N[C@@H](CCC(N)=O)C(=O)N[C@@H](CCC(N)=O)C(=O)N[C@@H](CC(=O)O)C(=O)N[C@@H](Cc1ccccc1)C(=O)N[C@H](C(=O)N[C@@H](CC(N)=O)C(=O)N[C@@H](Cc1c[nH]c2ccccc12)C(=O)N[C@@H](CC(C)C)C(=O)N[C@@H](CC(C)C)C(=O)N[C@@H](C)C(=O)N[C@@H](CCC(N)=O)C(=O)N[C@@H](CCCCN)C(N)=O)C(C)C` [AT303, [hGIP(3-30)NH2[I12K]-C16diacid/12]] (H-EGTFISDYSK(C16 diacid)AMDKIHQQDFVNWLLAQK-NH2; N-terminus assumed): the Emax came out at 24.2% and the EC50 was 28 nM. As to `CC[C@H](C)[C@H](NC(=O)[C@H](CO)NC(=O)[C@H](Cc1ccc(O)cc1)NC(=O)[C@H](CC(=O)O)NC(=O)[C@H](CO)NC(=O)[C@@H](NC(=O)[C@H](Cc1ccccc1)NC(=O)[C@@H](NC(=O)CNC(=O)[C@@H](N)CCC(=O)O)[C@@H](C)O)[C@@H](C)CC)C(=O)N[C@@H](C)C(=O)N[C@@H](CCSC)C(=O)N[C@@H](CC(=O)O)C(=O)N[C@@H](CCCCN)C(=O)N[C@H](C(=O)N[C@@H](Cc1c[nH]cn1)C(=O)N[C@@H](CCC(N)=O)C(=O)N[C@@H](CCC(N)=O)C(=O)N[C@@H](CC(=O)O)C(=O)N[C@@H](Cc1ccccc1)C(=O)N[C@H](C(=O)N[C@@H](CC(N)=O)C(=O)N[C@@H](Cc1c[nH]c2ccccc12)C(=O)N[C@@H](CC(C)C)C(=O)N[C@@H](CCCCNC(=O)CCCCCCCCCCCCCCC(=O)O)C(=O)N[C@@H](C)C(=O)N[C@@H](CCC(N)=O)C(=O)N[C@@H](CCCCN)C(N)=O)C(C)C)[C@@H](C)CC` [AT316, [hGIP(3-30)NH2[L27K]-C16diacid/27]] (H-EGTFISDYSIAMDKIHQQDFVNWLK(C16 diacid)AQK-NH2; N-terminus assumed), the Emax was 6.2%.

Broadly, the Emax is the greatest response seen or fitted, relative to the assay's reference. A word on the EC50: it is the midpoint of the concentration-response curve.
